The values below come from article PMC12373846, “Hemoglobin as a pseudoperoxidase and drug target for oxidative stress-related diseases” (Signal Transduction and Targeted Therapy, 2025).

The structures appear in SMILES notation.

One experiment concerns CAT. Nature of the experiment: ROS-Glo H2O2 assay with CAT. Type of experiment: biochemical. Here is the method: Hb (Sigma‒Aldrich, H7379), H2O2 (Sigma‒Aldrich, H1009), and Amplex Red reagents (Invitrogen, A12222) were obtained for the study. A 4 μM H2O2 solution was prepared in 50 mM sodium phosphate buffer (pH 7.2). Then, 49 μl of this mixture was mixed with 1 μl of the test compound in DMSO or distilled water. The mixture was combined with an assay mixture of Amplex Red reagent (20 mM stock to 0.1 mM) and HRP (200 U/ml stock to 0.2 U/ml) and added to the wells at 50 μl/well. After a 60-min incubation at 37 °C, resorufin production was quantified via a microplate fluorescence reader (SpectraMax iD5, Molecular Devices) at ex/em = 535/580 nm. The H2O2-decomposing activity was estimated via the following equation: (sample fluorescence-blank fluorescence)/(control […]-blank fluorescence) × 100. For the ROS-Glo assay, the H2O2 substrate solution and ROS-Glo detection solution were prepared according to the manufacturer’s instructions. 10 μM H2O2 and drugs were prepared as in the Amplex Red assay, with HRP, Hb, CAT, or GPx added as needed. […] Luminescence was measured via iD5 microplate readers. The H2O2-decomposing activity was estimated via the following equation: (sample luminescence-blank luminescence)/(control luminescence-blank luminescence) × 100. The U/ml was calculated on the basis of the amount of H2O2 reduced by Hb during the reaction, using μg/ml and U/mg.

The subject of the next experiment is A53T mice. The experiment in a line: Rotarod test, A53T PD mouse model. It is filed as in vivo. Here is the method:
Stereotaxic injections were performed to deliver the AAV-CMV-A53T virus or PBS (control) into the right SNpc (AP, −3.2 mm; ML, −1.3 mm; DV, −4.0 mm from the bregma) of the mice. The injections were administered at a rate of 0.2 μl/min, with a total volume of 1 μl. The procedure was conducted under general anesthesia induced by 1% isoflurane.
The mice were habituated to the rotarod at speeds of 5, 10, and 15 rpm. Motor coordination and endurance were tested at 20 rpm for a maximum of 3 min. The latency to fall was recorded during the test to evaluate motor deficits associated with PD and the therapeutic effects of KDS12025.
(In the rotarod test animals must keep their balance on a rotating rod.)

The next experiment concerns aged C57BL/6J mice. Nature of the experiment: Immunohistochemistry, aging mice. Type of experiment: in vivo, mouse. The conditions noted are these: 30 month, 1 mg/kg/day. The method, then: Aged 1-year-old C57BL/6J animals were purchased from Janvier Labs (France) and quarantined in the IBS Animal Facility for 2 weeks before the experiment. The animals were weighed, and their water consumption (in grams) was monitored for 3 days before the appropriate drug concentration was calculated for each dose group. The animals were randomly assigned to the drug/control and dose groups. […] The drug concentration (in water) was modified on the basis of changes in animal weight and corresponding water consumption every 3 months. Basal body temperature and body weight were monitored every 2 weeks. The care and handling of the animals were performed in accordance with the guidelines of the Institutional Animal Care and Use Committee of IBS (Daejeon, South Korea).
The mice were deeply anesthetized with 2% isoflurane and positioned on the operating table. After the abdomen was opened and the heart was exposed, the […] were perfused with saline, followed by 4% paraformaldehyde (PFA) in 0.1 M PBS. The mice were decapitated, and the brains were excised from the skull. Excised brains were postfixed in 4% PFA overnight at 4 °C and dehydrated in 30% sucrose for 48 h. Coronal hippocampal sections were cut at 30 µm thickness with a cryostat and stored in storage solution. For the ALS experiments, lumbar spinal cords (L2–L5) were also carefully dissected and immediately immersed in 4% PFA for postfixation. The sections were fully washed in 0.1 M PBS and incubated for 1 h in blocking solution (0.3% Triton X-100, 2% donkey and goat serum in 0.1 M PBS). Next, a mixture of primary antibodies in the blocking solution was used for immunostaining on a shaker overnight at 4 °C. The sections were washed in PBS three times. After washing, the sections were incubated with the corresponding fluorescent secondary antibodies for 1 h at RT. DAPI staining was performed by adding a DAPI solution (1:2000) during the second washing step. After the washing step was complete, the sections were mounted on cover slides with mounting medium. A series of fluorescence images were obtained with an LSM900 (Zeiss, Germany) confocal microscope or Lattice SIM Elyra 7 (Zeiss, Germany). The 15–22 μm Z stack images in 1–2 μm steps were processed for image analysis, which was performed via the ImageJ (NIH, US) and ZEN digital imaging for light microscopy blue system (Zeiss, Germany) programs. The primary antibodies used were as follows: chicken anti-GFAP (1:500, Millipore, ab5541), rabbit anti-amyloid beta (1:500, Abcam, ab2539), mouse anti-NeuN (1:200, Millipore, ab377), rabbit anti-Hbβ (1:200, Abcam, ab214049), mouse anti-Hbβ (1:200, Santacruz, sc-21757), mouse anti-MAOB (1:200, Santacruz, sc-515354), mouse anti-8-OhdG (1:500, Santacruz, sc-393871), rabbit anti-TH (1:500, Pelfreez, p40101), and mouse anti-TH (1:200, Sigma, T2928). The following secondary antibodies from Jackson were diluted (1:500) in blocking solution: donkey-anti-chicken 405, donkey-anti-chicken 647, donkey-anti-rabbit 488, donkey-anti-rabbit 594, donkey-anti-rabbit 647, donkey-anti-guinea pig 488, donkey-anti-guinea pig 647, donkey-anti-mouse 594, and donkey-anti-mouse 647. Serial confocal sections immunolabeled with GFAP were compiled into a maximal projection to assess the GFAP signal within the hippocampus (Z-stacked images, 15–22 μm Z stack images in 1–2 μm steps of brain sections). Sholl analysis, performed via the ImageJ plugin, automatically generated concentric circles with 10-μm spacing from the nucleus (soma) to the farthest astrocytic process. This analysis quantified the intersections of GFAP-labeled processes within each circle, calculating the ramification index and ending radius, enabling the evaluation of astrocytic hypertrophy and morphological changes, as previously described.[78] In the focal GiD mouse model, NeuN-positive CA1 pyramidal neurons were quantified within a 50 × 50 μm^2 region via ImageJ to determine the number of CA1 pyramidal neurons.

For `O=C(O)c1cc(NCCc2ccc(C(F)(F)F)cc2)ccc1O` [HTPEB, 2-hydroxy-5-[2-(4-trifluoromethyl-phenyl)-ethylamino]-benzoic acid, reference compound], in the experiment with CAT, the “effect on CAT activity” value is “did not increase”.

On to `CNc1ccc(NCCc2ccccc2OC)cc1.Cl` [KDS12025, N^1-(2-methoxyphenethyl)-N^4-methylbenzene-1,4-diamine hydrochloride salt], for which the “rotarod latency to fall” value with A53T mice (A53T+KDS12025 1 mg/kg/day ad libitum, Fig. 4h) was “Control (225.3±30.6, n=6), A53T (93.8±19.6, n=7), A53T+KDS12025 (223.8±23.5, n=8) One-way ANOVA with Tukey's multiple comparisons test, F(2,18) = 9.52, p = 0.002 Control vs. A53T, p = 0.005; Control vs. A53T+KDS12025, p > 0.99; A53T vs. A53T+KDS12025, p = 0.003”; in the experiment on A53T mice (A53T+shHbβ::CaMKII+KDS12025, Fig. 6q) it was 139.0±51.1; with A53T mice (A53T+shHbβ::GFAP+KDS12025, Fig. 6q), 117.0±63.6. For the same compound, the “Sholl analysis, sum of intersections (stats entry 7h)” value in the experiment on aged C57BL/6J mice is listed as 18 month (84.3±5.19, n=8), 30 month (44.4±5.44, n=9), 30 month+KDS (63.6±5.78, n=14) One-way ANOVA with Tukey's multiple comparisons test, F(2,28) = 9.65, p < 0.001 18 month vs. 30 month, p < 0.001; 18 month vs. 30 month+KDS, p = 0.05; 30 month vs. 30 month+KDS, p = 0.06. Further, the “NeuN-positive neurons in CA1 (NeuN intensity × neuron number)” value in the experiment on aged C57BL/6J mice (Fig. 7f) is 18 month (1694642±125526, n=6), 30 month (1149296±45876, n=4), 30 month+KDS (1820376±163596, n=6) One-way ANOVA with Tukey's multiple comparisons test, F(2,13) = 5.78, p = 0.02 18 month vs. 30 month, p = 0.05; 18 month vs. 30 month+KDS, p = 0.77; 30 month vs. 30 month+KDS, p = 0.02. Further, the GFAP-positive area in the experiment on aged C57BL/6J mice (Fig. 7g) was 18 month (272.5±20.8, n=44), 30 month (167.6±12, n=60), 30 month+KDS (212.0±12.4, n=76) One-way ANOVA with Tukey's multiple comparisons test, F(2,177) = 11.24, p < 0.001 18 month vs. 30 month, p < 0.001; 18 month vs. 30 month+KDS, p = 0.01; 30 month vs. 30 month+KDS, p = 0.06. Further, the “astrocytic Hbβ expression in the hippocampus” value with aged C57BL/6J mice (Fig. 7l) is 18 month (56.4±1.04, n=48), 30 month (49.5±1.7, n=40), 30 month+KDS (62.8±1.32, n=32) One-way ANOVA with Tukey's multiple comparisons test, F(2,117) = 21.5, p < 0.001 18 month vs. 30 month, p < 0.001; 18 month vs. 30 month+KDS, p = 0.004; 30 month vs. 30 month+KDS, p < 0.001. Moreover, in the experiment with aged C57BL/6J mice (Fig. S19b), the “MAOB intensity in GFAP-positive areas” value is listed as 18 month (40.7±0.7, n=95), 30 month (71.5±1.04, n=66), 30 month+KDS (51.1±0.8, n=83) One-way ANOVA with Tukey's multiple comparisons test, F(2,241) = 354.7, p < 0.001 18 month vs. 30 month, p < 0.001; 18 month vs. 30 month+KDS, p < 0.001; 30 month vs. 30 month+KDS, p < 0.001. For the same compound, the “GABA intensity in GFAP-positive areas” value with aged C57BL/6J mice (Fig. S19c) is 18 month (50.7±0.7, n=95), 30 month (67.03±1.7, n=66), 30 month+KDS (69.2±1.3, n=83) One-way ANOVA with Tukey's multiple comparisons test, F(2,198) = 84.9, p < 0.001 18 month vs. 30 month, p < 0.001; 18 month vs. 30 month+KDS, p < 0.001; 30 month vs. 30 month+KDS, p = 0.47. In addition, in the experiment with aged C57BL/6J mice (Fig. S19d), the “TH-positive neurons in the SNpc” value is on record as “Unaired t-test, two tailed 30 month (23.75±5.12, n=4), 30 month+KDS (40.2±2.67, n=5), p = 0.02 t = 3.03, df = 7”.
